Test results: patent US11518755B2, “Stable solutions of multicyclic antidepressants” (Leyden Technologies B.V., priority 2017, dated 2022)

Assay: Solubility of clozapine in different solvent systems (excess clozapine, shaken 24 hours, HPLC)
Assay type: physicochemical
Protocol: For clozapine, solutions of 20 mg/mL or more are preferred for oral administration of the solution. For soft gel capsules an even higher concentration is preferable. Therefore, a solubility study for clozapine was performed. An excess of clozapine was weighed in a HPLC vial and 1.0 mL of various solvent systems was added. Following, the mixture was placed on a mechanical shaker for 24 hours at 200 RPM and analysed by HPLC for clozapine content.

With CN1CCN(C2=Nc3cc(Cl)ccc3Nc3ccccc32)CC1 [Clozapine, 8-Chloro-11-(4-methylpiperazin-1-yl)-5H-dibenzo[b,e][1,4]diazepine] the “clozapine content after 24 hours” value (solvent system: 0.1% acetic acid in water) was 4.7 mg/mL, the “clozapine content after 24 hours” value (solvent system: 1% acetic acid in water) was 38.1 mg/mL and the “clozapine content after 24 hours” value (solvent system: 1% citric acid in water) was 27.6 mg/mL. The “clozapine content after 24 hours” value (solvent system: 5% Transcutol P in PEG400) was 91.8 mg/mL, the “clozapine content after 24 hours” value (solvent system: 5% acetic acid in water) was 51.5 mg/mL and the “clozapine content after 24 hours” value (solvent system: 5% citric acid in water) was 34.2 mg/mL. For the same compound, the “clozapine content after 24 hours” value (solvent system: 10% Transcutol P in PEG400) was 91.3 mg/mL, the “clozapine content after 24 hours” value (solvent system: 10% acetic acid in water) was 59.8 mg/mL and the “clozapine content after 24 hours” value (solvent system: 10% citric acid in water) was 50.7 mg/mL. For the same compound, the “clozapine content after 24 hours” value (solvent system: 20% Kolliphor RH40/PEG400 (10:90)) was 72.8 mg/mL, the “clozapine content after 24 hours” value (solvent system: 20% Transcutol P in PEG400) was 99.5 mg/mL and the “clozapine content after 24 hours” value (solvent system: 20% kolliphor RH40 in water) was 7.4 mg/mL. The “clozapine content after 24 hours” value (solvent system: 40% corn oil in miglyol) was 8.4 mg/mL, the “clozapine content after 24 hours” value (solvent system: 50% solutol in water) was 17.8 mg/mL and the “clozapine content after 24 hours” value (solvent system: 50% solutol/PEG400 (10:90)) was 81.6 mg/mL. For the same compound, the “clozapine content after 24 hours” value (solvent system: 100% Transcutol P) was 151.3 mg/mL, the “clozapine content after 24 hours” value (solvent system: Caprylocaproyl macrogol-8 glycerides (Labrasol ®)) was 34.0 mg/mL and the “clozapine content after 24 hours” value (solvent system: Citrate buffer pH 3.4) was 57.2 mg/mL. For the same compound, the “clozapine content after 24 hours” value (solvent system: Citrate buffer pH 3.7) was 44.0 mg/mL, the “clozapine content after 24 hours” value (solvent system: Citrate buffer pH 4.0) was 34.3 mg/mL and the “clozapine content after 24 hours” value (solvent system: Citrate buffer pH 4.7) was 19.9 mg/mL. The “clozapine content after 24 hours” value (solvent system: Corn oil) was 5.1 mg/mL, the “clozapine content after 24 hours” value (solvent system: N,N′-dimethyl acetamide (DMA)) was 106.8 mg/mL and the “clozapine content after 24 hours” value (solvent system: N-methyl-2-pyrrolydone (NMP)) was 409.7 mg/mL. The “clozapine content after 24 hours” value (solvent system: PEG200) was 81.8 mg/mL, the “clozapine content after 24 hours” value (solvent system: PEG400) was 77.0 mg/mL and the “clozapine content after 24 hours” value (solvent system: PEG400/34 mmol Citrate buffer, 20:80 (V/V)) was 52.7 mg/mL. The “clozapine content after 24 hours” value (solvent system: PEG400/34 mmol Citrate buffer, 40:60 (V/V)) was 52.3 mg/mL, the “clozapine content after 24 hours” value (solvent system: PEG400/34 mmol Citrate buffer, 60:40 (V/V)) was 47.6 mg/mL and the “clozapine content after 24 hours” value (solvent system: PEG400/34 mmol Citrate buffer, 80:20 (V/V)) was 49.8 mg/mL. The “clozapine content after 24 hours” value (solvent system: PEG400/Citrate buffer pH 4.0, 50:50 (V/V)) was 33.4 mg/mL, the “clozapine content after 24 hours” value (solvent system: PEG400/Citrate buffer pH 4.0, 60:40 (V/V)) was 29.6 mg/mL and the “clozapine content after 24 hours” value (solvent system: PEG400/Citrate buffer pH 4.0, 70:30 (V/V)) was 32.1 mg/mL. The “clozapine content after 24 hours” value (solvent system: PEG400/Citrate buffer pH 4.0, 80:20 (V/V)) was 44.6 mg/mL, the “clozapine content after 24 hours” value (solvent system: PEG400/Citrate buffer pH 4.0, 90:10 (V/V)) was 56.2 mg/mL and the “clozapine content after 24 hours” value (solvent system: PEG400/water (50:50)) was 2.3 mg/mL. For the same compound, the “clozapine content after 24 hours” value (solvent system: PEG400/water (60:40)) was 6.5 mg/mL, the “clozapine content after 24 hours” value (solvent system: PEG400/water (70:30)) was 14.0 mg/mL and the “clozapine content after 24 hours” value (solvent system: PEG400/water (80:20)) was 31.1 mg/mL. The “clozapine content after 24 hours” value (solvent system: PEG600/water (90:10)) was 65.2 mg/mL, the “clozapine content after 24 hours” value (solvent system: ethanol) was 33.9 mg/mL and the “clozapine content after 24 hours” value (solvent system: glycerol) was 0.5 mg/mL. For the same compound, the “clozapine content after 24 hours” value (solvent system: miglyol) was 10.3 mg/mL and the “clozapine content after 24 hours” value (solvent system: water) was 0.3 mg/mL.
